Source: patent publication US9346786B2, “Pyrrolidine compounds” (Hoffmann-La Roche Inc., priority 2009, dated 2016)
pKi: −log10 of the molar value. Where two headings read alike, the source gives them in different places.

Target: recombinant human NK3 receptor (Homo sapiens (Human), UniProt P29371)
Assay: biochemical
Format: binding
Settings: read-out: Data Ki (hNK-3 receptor affinity)
[1] = [3H]SR142801, membranes of HEK293 cells transiently expressing recombinant human NK3 receptor

Sequence of recombinant human NK3 receptor (P29371 whole entry): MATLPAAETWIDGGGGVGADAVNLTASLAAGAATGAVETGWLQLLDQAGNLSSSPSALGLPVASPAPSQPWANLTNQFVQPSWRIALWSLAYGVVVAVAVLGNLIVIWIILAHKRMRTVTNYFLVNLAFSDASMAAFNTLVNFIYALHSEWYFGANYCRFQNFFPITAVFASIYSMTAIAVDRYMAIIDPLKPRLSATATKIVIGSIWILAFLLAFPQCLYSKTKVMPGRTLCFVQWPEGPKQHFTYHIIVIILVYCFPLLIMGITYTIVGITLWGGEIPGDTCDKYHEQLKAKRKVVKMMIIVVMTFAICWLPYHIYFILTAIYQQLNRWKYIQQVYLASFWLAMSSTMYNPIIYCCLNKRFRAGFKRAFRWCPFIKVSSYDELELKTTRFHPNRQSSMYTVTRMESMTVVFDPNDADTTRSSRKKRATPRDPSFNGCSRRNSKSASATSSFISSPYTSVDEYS

Row | Structure (SMILES) | pKi [1] | pKi
1 | CCN(C(=O)Oc1ccc(F)cc1)[C@@H]1CN(C(=O)C2CCN(c3ccc(F)cn3)CC2)C[C@H]1c1ccc(F)c(F)c1 [Example 54, [(3S,4R)-4-(3,4-Difluoro-phenyl)-1-(5′-fluoro-3,4,5,6-tetrahydro-2H-[1,2′]bipyridinyl-4-carbonyl)-pyrrolidin-3-yl]-ethyl-carbamic acid 4-fluoro-phenyl ester] | 8.15 | 
2 | CCN(C(=O)Oc1ccc(F)cc1)[C@@H]1CN(C(=O)C2CCN(c3ccc(C)cn3)CC2)C[C@H]1c1ccc(F)c(F)c1 [Example 55, [(3S,4R)-4-(3,4-Difluoro-phenyl)-1-(5′-methyl-3,4,5,6-tetrahydro-2H-[1,2′]bipyridinyl-4-carbonyl)-pyrrolidin-3-yl]-ethyl-carbamic acid 4-fluoro-phenyl ester] |  | 8.05
3 | CCN(C(=O)Oc1ccc(F)cc1)[C@@H]1CN(C(=O)C2CCNCC2)C[C@H]1c1ccc(Cl)c(F)c1 [Example 56, [(3S,4R)-4-(4-Chloro-3-fluoro-phenyl)-1-(piperidine-4-carbonyl)-pyrrolidin-3-yl]-ethyl-carbamic acid 4-fluoro-phenyl ester] | 6.57 | 
4 | CCN(C(=O)Oc1ccc(F)cc1)[C@@H]1CN(C(=O)C2CCN(c3ccc(C#N)nn3)CC2)C[C@H]1c1ccc(Cl)c(F)c1 [Example 57, {(3S,4R)-4-(4-Chloro-3-fluoro-phenyl)-1-[1-(6-cyano-pyridazin-3-yl)-piperidine-4-carbonyl]-pyrrolidin-3-yl}-ethyl-carbamic acid 4-fluoro-phenyl ester] | 9.15 | 
5 | CCN(C(=O)Oc1ccc(F)cc1)[C@@H]1CN(C(=O)C2CCN(c3ccc(C#N)nn3)CC2)C[C@H]1c1ccc(F)c(F)c1 [Example 58, [(3S,4R)-1-[1-(6-Cyano-pyridazin-3-yl)-piperidine-4-carbonyl]-4-(3,4-difluoro-phenyl)-pyrrolidin-3-yl]-ethyl-carbamic acid 4-fluoro-phenyl ester] | 8.30 | 
6 | CCN(C(=O)Oc1ccc(F)cc1)[C@@H]1CN(C(=O)C2CCN(c3ccc(C(C)=O)cn3)CC2)C[C@H]1c1ccc(Cl)c(F)c1 [Example 59, [(3S,4R)-1-(5′-Acetyl-3,4,5,6-tetrahydro-2H-[1,2′]bipyridinyl-4-carbonyl)-4-(4-chloro-3-fluoro-phenyl)-pyrrolidin-3-yl]-ethyl-carbamic acid 4-fluoro-phenyl ester] | 9.30 | 
7 | CCN(C(=O)Oc1ccc(F)cc1)[C@@H]1CN(C(=O)C2CCN(c3ccc(C(C)=O)cn3)CC2)C[C@H]1c1ccc(F)c(F)c1 [Example 60, [(3S,4R)-1-(5′-Acetyl-3,4,5,6-tetrahydro-2H-[1,2′]bipyridinyl-4-carbonyl)-4-(3,4-difluoro-phenyl)-pyrrolidin-3-yl]-ethyl-carbamic acid 4-fluoro-phenyl ester] | 8.40 | 
8 | CCN(C(=O)Oc1ccc(F)cc1)[C@@H]1CN(C(=O)C2CCN(c3cnc(C#N)cn3)CC2)C[C@H]1c1ccc(Cl)c(F)c1 [Example 61, {(3S,4R)-4-(4-Chloro-3-fluoro-phenyl)-1-[1-(5-cyano-pyrazin-2-yl)-piperidine-4-carbonyl]-pyrrolidin-3-yl}-ethyl-carbamic acid 4-fluoro-phenyl ester] | 9.10 | 
9 | CCN(C(=O)Oc1ccc(F)cc1)[C@@H]1CN(C(=O)C2CCN(c3cnc(C#N)cn3)CC2)C[C@H]1c1ccc(F)c(F)c1 [Example 62, [(3S,4R)-1-[1-(5-Cyano-pyrazin-2-yl)-piperidine-4-carbonyl]-4-(3,4-difluoro-phenyl)-pyrrolidin-3-yl]-ethyl-carbamic acid 4-fluoro-phenyl ester] | 8.22 | 
10 | CCN(C(=O)Oc1ccc(F)cc1)[C@@H]1CN(C(=O)C2CCN(c3ccc(S(C)(=O)=O)cn3)CC2)C[C@H]1c1ccc(Cl)c(F)c1 [Example 63, [(3S,4R)-4-(4-Chloro-3-fluoro-phenyl)-1-(5′-methanesulfonyl-3,4,5,6-tetrahydro-2H-[1,2′]bipyridinyl-4-carbonyl)-pyrrolidin-3-yl]-ethyl-carbamic acid 4-fluoro-phenyl ester] | 9.15 | 
